Results reported in ChEMBL document CHEMBL5465560, “Selectivity Literature for EUbOPEN Chemogenomic Library” (2024).

Legend:
[1] = biological target: Casein kinase I isoform epsilon (Homo sapiens, UniProt P49674); test: Selectivity interaction (KinomeScan (DiscoverX)) EUB0000666a CSNK1E; conditions: at 10 µM
[2] = biological target: Tyrosine-protein kinase Yes (Homo sapiens) (UniProt P07947); test: Selectivity interaction (KinomeScan (DiscoverX)) EUB0000695a YES1; conditions: at 100 nM
[3] = biological target: MAP kinase-interacting serine/threonine-protein kinase 1 (Homo sapiens) (UniProt Q9BUB5); test: Selectivity interaction (KinomeScan (DiscoverX)) EUB0000595a MKNK1; conditions: at 10 µM
Sequence of MAP kinase-interacting serine/threonine-protein kinase 1 (Homo sapiens) (Q9BUB5 whole entry, looked up): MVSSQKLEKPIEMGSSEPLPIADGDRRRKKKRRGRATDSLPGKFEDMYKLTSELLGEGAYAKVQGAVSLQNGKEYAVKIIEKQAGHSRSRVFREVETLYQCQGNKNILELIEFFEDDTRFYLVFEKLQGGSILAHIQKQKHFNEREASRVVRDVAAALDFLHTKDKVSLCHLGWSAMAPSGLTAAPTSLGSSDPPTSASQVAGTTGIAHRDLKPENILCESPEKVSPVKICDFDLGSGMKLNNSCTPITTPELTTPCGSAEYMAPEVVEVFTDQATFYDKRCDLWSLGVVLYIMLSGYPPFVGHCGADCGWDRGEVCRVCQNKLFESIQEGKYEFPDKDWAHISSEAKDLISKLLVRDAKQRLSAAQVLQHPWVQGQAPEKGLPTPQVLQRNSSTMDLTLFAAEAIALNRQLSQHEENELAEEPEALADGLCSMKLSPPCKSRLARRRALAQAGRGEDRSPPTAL

[4] = biological target: T1, Mitogen-activated protein kinase kinase kinase 6 (Homo sapiens) (UniProt O95382); test: Selectivity interaction (Ambit KINOMEscan and KiNATiv profiling in Jurkat cells) EUB0000090b MAP3K6; type: cell-based; conditions: at 1 µM
T1 sequence (whole entry): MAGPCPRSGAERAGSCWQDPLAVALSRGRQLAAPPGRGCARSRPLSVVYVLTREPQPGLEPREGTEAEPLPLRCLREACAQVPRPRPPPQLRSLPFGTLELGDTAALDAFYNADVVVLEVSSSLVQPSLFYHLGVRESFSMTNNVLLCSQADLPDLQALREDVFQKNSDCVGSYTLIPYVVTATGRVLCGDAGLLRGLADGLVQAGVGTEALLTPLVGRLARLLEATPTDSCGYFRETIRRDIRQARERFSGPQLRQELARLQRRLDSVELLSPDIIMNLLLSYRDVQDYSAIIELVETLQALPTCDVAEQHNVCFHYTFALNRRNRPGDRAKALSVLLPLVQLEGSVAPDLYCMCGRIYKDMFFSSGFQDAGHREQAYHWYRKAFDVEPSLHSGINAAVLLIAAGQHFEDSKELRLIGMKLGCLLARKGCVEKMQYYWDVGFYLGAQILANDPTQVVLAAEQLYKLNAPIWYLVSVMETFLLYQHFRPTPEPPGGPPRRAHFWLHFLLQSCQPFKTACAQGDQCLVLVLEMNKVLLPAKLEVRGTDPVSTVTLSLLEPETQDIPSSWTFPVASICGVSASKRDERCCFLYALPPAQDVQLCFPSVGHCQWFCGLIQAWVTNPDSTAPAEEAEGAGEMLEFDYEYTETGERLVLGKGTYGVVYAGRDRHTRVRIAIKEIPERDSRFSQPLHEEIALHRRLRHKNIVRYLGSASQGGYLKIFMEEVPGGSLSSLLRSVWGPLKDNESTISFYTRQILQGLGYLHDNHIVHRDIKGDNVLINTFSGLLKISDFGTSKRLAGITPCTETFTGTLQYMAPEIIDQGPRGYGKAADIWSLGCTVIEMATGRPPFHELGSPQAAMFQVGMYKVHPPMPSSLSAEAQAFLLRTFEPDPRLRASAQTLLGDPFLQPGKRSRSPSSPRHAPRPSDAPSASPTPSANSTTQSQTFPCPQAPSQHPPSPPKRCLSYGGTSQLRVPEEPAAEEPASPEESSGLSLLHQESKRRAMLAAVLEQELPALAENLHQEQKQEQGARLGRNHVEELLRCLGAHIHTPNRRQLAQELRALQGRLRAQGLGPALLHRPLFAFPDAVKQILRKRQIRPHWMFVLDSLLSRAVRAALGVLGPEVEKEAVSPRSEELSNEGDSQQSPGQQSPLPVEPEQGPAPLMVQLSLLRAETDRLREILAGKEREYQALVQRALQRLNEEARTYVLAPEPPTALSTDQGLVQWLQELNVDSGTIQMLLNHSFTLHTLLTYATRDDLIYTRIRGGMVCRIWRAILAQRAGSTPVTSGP

[5] = biological target: Serine/threonine-protein kinase WNK1 (Homo sapiens) (UniProt Q9H4A3); test: Selectivity interaction (Ambit KINOMEscan and KiNATiv profiling in Jurkat cells) EUB0000090b WNK1; type: cell-based; conditions: at 1 µM
[6] = biological target: T2, N-lysine methyltransferase KMT5A (Homo sapiens) (UniProt Q9NQR1); test: Selectivity interaction (Transferase panel (protein, RNA, and DNA methyltransferases. and EP300 (acetyltransferase))) EUB0000270b SETD8
T2 sequence (whole entry): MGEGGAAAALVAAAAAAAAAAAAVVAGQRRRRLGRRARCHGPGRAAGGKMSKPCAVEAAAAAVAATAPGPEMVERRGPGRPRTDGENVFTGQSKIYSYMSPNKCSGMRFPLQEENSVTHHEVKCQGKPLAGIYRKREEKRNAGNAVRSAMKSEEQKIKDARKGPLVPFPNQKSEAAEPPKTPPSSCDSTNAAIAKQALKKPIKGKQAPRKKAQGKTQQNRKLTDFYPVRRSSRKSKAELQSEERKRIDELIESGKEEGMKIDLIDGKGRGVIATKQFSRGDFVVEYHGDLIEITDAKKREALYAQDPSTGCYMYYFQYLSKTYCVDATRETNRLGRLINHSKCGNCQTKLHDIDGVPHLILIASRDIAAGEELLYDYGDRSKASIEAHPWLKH

[7] = biological target: Tyrosine-protein kinase Lck (Homo sapiens, UniProt P06239); test: Selectivity interaction (KinomeScan (DiscoverX)) EUB0000229b LCK; conditions: at 10 µM
Sequence of Tyrosine-protein kinase Lck (P06239 2-509 limits assumed): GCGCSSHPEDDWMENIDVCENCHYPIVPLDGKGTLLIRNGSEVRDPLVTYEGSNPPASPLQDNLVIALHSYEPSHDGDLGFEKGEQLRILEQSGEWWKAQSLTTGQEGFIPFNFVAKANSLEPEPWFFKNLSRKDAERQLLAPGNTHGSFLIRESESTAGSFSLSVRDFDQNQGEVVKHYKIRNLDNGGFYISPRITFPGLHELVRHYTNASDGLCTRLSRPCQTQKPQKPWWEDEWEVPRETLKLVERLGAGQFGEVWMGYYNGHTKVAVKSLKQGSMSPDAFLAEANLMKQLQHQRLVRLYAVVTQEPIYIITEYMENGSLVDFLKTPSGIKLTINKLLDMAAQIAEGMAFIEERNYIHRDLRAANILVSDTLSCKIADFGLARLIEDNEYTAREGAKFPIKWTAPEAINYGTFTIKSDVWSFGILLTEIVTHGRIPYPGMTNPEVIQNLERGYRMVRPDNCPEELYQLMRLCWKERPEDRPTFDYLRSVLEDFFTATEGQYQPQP

[8] = biological target: Proto-oncogene tyrosine-protein kinase receptor Ret (Homo sapiens, UniProt P07949); conditions: at 10 µM
Sequence of Proto-oncogene tyrosine-protein kinase receptor Ret (P07949 whole entry): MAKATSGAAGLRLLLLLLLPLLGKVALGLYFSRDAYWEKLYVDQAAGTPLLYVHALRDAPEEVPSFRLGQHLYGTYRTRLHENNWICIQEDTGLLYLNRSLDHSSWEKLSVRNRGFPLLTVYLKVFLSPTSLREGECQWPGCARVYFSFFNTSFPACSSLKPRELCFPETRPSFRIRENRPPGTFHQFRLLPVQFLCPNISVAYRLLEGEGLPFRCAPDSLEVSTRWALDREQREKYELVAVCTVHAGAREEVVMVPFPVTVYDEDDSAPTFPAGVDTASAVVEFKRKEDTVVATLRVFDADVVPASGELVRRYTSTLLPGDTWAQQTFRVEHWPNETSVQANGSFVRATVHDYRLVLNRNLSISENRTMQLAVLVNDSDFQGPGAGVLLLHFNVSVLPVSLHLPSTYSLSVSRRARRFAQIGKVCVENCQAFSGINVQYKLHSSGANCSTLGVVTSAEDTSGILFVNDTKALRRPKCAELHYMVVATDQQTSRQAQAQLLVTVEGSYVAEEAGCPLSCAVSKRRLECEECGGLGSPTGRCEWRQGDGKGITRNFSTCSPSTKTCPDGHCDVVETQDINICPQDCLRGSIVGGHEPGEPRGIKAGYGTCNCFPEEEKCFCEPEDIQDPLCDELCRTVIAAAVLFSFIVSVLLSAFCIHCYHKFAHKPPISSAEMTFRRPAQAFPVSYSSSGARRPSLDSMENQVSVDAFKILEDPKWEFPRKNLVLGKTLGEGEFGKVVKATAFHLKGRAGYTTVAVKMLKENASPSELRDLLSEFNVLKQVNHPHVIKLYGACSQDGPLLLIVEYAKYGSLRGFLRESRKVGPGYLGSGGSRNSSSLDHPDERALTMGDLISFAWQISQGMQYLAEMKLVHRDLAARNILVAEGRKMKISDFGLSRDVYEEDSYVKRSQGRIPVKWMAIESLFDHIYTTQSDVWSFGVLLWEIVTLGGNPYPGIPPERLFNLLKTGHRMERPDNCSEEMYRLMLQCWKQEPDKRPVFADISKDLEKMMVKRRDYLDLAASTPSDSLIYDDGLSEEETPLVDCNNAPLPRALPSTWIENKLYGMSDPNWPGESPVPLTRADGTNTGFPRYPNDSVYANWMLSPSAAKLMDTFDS

[9] = biological target: T3, Serine/threonine-protein kinase BRSK2 (Homo sapiens) (UniProt Q8IWQ3); conditions: at 10 µM
T3 sequence (whole entry): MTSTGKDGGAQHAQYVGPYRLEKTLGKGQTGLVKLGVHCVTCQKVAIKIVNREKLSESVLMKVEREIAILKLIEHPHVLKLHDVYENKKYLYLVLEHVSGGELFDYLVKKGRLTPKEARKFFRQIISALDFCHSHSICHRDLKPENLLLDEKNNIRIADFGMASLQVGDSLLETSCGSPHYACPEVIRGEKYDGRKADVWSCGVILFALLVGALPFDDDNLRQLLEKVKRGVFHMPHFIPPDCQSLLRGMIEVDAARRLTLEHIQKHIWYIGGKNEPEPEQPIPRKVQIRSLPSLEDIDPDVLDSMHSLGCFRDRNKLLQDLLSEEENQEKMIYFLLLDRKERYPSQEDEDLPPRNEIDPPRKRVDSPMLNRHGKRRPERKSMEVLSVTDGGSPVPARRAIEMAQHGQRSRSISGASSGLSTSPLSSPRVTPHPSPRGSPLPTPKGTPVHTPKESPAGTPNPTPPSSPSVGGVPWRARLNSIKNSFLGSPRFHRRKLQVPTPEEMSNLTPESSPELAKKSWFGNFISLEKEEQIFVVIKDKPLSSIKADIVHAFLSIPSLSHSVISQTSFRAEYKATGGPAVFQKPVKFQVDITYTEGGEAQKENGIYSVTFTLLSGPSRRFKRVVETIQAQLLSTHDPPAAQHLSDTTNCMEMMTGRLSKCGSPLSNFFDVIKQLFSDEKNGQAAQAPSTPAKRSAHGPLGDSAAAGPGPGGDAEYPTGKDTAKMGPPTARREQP

[10] = biological target: Calcium/calmodulin-dependent protein kinase type II subunit beta (Homo sapiens) (UniProt Q13554); test: Selectivity interaction (KinomeScan (DiscoverX)) EUB0000618a CAMK2B; conditions: at 10 µM
Sequence of Calcium/calmodulin-dependent protein kinase type II subunit beta (Homo sapiens) (Q13554 whole entry): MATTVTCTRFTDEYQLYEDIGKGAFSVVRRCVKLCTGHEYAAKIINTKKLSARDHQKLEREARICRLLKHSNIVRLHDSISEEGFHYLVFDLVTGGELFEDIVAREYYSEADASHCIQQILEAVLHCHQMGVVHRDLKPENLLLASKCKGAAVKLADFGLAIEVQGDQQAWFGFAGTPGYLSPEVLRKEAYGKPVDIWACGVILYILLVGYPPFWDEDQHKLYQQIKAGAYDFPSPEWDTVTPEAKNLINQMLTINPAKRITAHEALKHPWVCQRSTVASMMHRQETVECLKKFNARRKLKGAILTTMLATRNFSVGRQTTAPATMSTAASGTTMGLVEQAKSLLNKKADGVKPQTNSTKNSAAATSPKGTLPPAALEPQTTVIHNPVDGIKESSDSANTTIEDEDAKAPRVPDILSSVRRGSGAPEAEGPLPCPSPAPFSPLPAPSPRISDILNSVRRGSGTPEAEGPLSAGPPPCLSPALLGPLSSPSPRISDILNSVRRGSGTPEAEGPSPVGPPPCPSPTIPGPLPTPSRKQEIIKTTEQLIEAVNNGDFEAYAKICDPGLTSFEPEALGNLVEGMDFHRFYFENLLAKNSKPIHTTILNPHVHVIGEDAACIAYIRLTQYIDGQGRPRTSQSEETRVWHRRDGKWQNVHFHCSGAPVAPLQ

Sequence of Tyrosine-protein kinase Yes (Homo sapiens) (P07947 2-543 limits assumed): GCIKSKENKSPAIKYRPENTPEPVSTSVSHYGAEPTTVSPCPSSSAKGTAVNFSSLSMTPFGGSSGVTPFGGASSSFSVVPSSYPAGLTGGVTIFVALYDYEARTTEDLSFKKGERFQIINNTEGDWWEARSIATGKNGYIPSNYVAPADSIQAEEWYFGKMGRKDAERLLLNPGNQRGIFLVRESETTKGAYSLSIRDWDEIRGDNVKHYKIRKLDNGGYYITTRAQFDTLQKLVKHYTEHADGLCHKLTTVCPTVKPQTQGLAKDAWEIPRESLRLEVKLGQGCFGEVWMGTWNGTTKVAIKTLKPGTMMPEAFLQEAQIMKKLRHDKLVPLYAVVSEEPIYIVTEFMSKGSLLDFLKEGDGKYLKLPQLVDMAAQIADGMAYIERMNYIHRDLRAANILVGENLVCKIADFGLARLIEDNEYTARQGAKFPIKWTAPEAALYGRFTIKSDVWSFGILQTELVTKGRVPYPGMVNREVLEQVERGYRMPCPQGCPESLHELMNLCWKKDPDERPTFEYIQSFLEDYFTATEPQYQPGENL
Sequence of Casein kinase I isoform epsilon (P49674 whole entry, looked up, canonical isoform): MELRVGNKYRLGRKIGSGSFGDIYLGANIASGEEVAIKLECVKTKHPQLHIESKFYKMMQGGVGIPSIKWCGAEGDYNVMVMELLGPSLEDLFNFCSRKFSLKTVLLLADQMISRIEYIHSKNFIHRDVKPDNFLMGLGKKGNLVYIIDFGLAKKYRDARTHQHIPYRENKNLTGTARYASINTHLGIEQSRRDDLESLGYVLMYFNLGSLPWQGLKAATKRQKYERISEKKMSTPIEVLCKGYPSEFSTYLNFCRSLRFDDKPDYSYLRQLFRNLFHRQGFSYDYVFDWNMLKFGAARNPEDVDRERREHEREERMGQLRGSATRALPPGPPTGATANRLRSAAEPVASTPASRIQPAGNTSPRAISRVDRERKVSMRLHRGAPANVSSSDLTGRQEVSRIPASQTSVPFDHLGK

O=C(NOC[C@H](O)CO)c1ccc(F)c(F)c1Nc1ccc(I)cc1F was tested. Which % of control [1] did it give?
The % of control was 100%.

How did the % of control [2] turn out when Cc1cc(F)c(C(=O)Nc2cccc(-c3nncn3C(C)C)n2)cc1-n1cnc(C2CC2)c1 was run?
The % of control was 73%.

For COCC(=O)NC/C=C/c1ccc2ncnc(Nc3ccc(Oc4ccc(C)nc4)c(C)c3)c2c1 [CP-724714], which % of control [3] is on record?
Its % of control is 100%.

For CN(C)C/C=C/C(=O)Nc1ccc(C(=O)N2CCCC(Nc3ncc(Cl)c(-c4c[nH]c5ccccc45)n3)C2)cc1 (stereo unspecified), which % of control [4] is on record?
Its % of control is 100%.

And the % of control [5]?
The % of control was 80%.

Which results are given for Cc1cc(CN)cc(C)c1-c1ncn(C)c1-c1cncn1C?
% activity ([6]; at 1 µM): > 90%; % activity ([6]; at 10 µM): > 80%

How did the % binding [7] turn out when COc1cc(N(C)c2ccnc3ccc(C(F)(F)F)cc23)cc(OC)c1OC was run?
Its % binding is 80%.

Which % of control [8] does the source give for Cc1cc([C@@H](C)Nc2ccccc2C(=O)O)c2nc(N3CCOCC3)cc(=O)n2c1 [AZD-6482] here?
Its % of control is 100%.

What about the % of control [9] of the same molecule?
Its % of control is 100%.

O[C@H]1CC[C@H](Nc2ncc3nc(Nc4c(F)cc(F)cc4F)n([C@H]4CCOC4)c3n2)CC1 was tested. Which % of control [10] did it give?
The % of control was 100%.
